The term IC50 denotes the concentration that gives 50% inhibition.

The target of this test is T1, Autotaxin enzyme (ATX) (Homo sapiens, UniProt Q13822).
T1 construct: purchased Echelon Biosciences, Inc. E-4000
Briefly: In vitro ATX assay (enzymatic ATX inhibition, LPC 14:0 substrate, choline oxidase/HRP absorbance readout). The class given is biochemical. The note with it: 0.3 mM LPC 14:0, 37° C., 4 hours, absorbance 555 nm. The method, then: • Assay buffer: 100 mM Tris-HCl, pH 9.0, 500 mM NaCl, 5 mM MgCl2, 30 μM CoCl2, 0.05% Triton X-100 • Assay buffer II: 4.5 mM 4-AAP, 2.7 mM TOOS, 21.2 U/mL HRP, 3 U/mL CO, In 50 mM Tris-HCl pH 8.0, 4.5 mM MgCl2
A compound preparation plate (Nunc 249944) was prepared by adding 30 mM stock solution (in DMSO) of test compound and performing a serial full-log dilution down to 30 nM. Two μL/well were transferred from the first compound prep plate to a compound dilution plate (Corning, 3641) and 198 μL assay buffer I was added for a […].
A 10 ng/mL solution of ATX was prepared by diluting in assay buffer I, and 80 μL/well were added to the assay plate (Corning, 3641); negative control wells contained 80 μL/well assay buffer I only (no ATX). Ten μL/well from the compound dilution plate (containing serially diluted test compound or DMSO) were added to the assay plate, which was then incubated at 37° C. for 15 minutes. A solution of LPC 14:0 was prepared in assay buffer I at 3 mM and 10 μl/well were added to the assay plate, for a final concentration of 0.3 mM LPC, and returned to 37° C. incubator for 4 hours. After 4 hour incubation, 100 μL/well of assay buffer II was added to all wells of the assay plate. The plate was incubated at RT for 15 minutes, prior to reading on FlexStation in absorbance mode, 555 nm. Results in the enzymatic ATX inhibition assay are provided for compounds of formula (I). An IC50 value of “A” is less than 100 nM, “B” is equal to or greater than 100 nM but less than 1 μM, “C” is equal to or greater than 1 μM.
Take `CC(C)Oc1cc(CNc2ncc(C(=O)N3CCC34COC4)cn2)cc(N2CCC2)c1` [Example 63]: the IC50 was in the range of 100 to 1000 nM. Compound `COC[C@@H]1CCN1C(=O)c1cnc(NC2Cc3ccc(Cl)cc3C2)nc1` (some centres unmarked) [Example 57] had an IC50 below 100 nM. The compound `O=C(c1cnc(NCc2cc(OC(F)(F)F)cc(C3CC3)c2)nc1)N1CCC12CCOCC2` [Example 101, (2-((3-cyclopropyl-5-(trifluoromethoxy)benzyl)ami-no)pyrimidin-5-yl)(7-oxa-1-azaspiro[3.5]nonan-1-yl)methanone] registered an IC50 below 100 nM.

With `CCOc1cc(CNc2ncc(C(=O)N3CCC3C(C)(C)O)cn2)cc(OC(F)(F)F)c1` (centres unmarked) [Example 66], the 50% inhibitory concentration (IC50) is below 100 nM. For `O=C(c1cnc(NCc2cccc(Cl)c2)nc1)N1CCC12COC2` [Example 15], the IC50 is at least 1000 nM. Turning to `CCOc1cc(CNc2ncc(C(=O)N3CCC3C(C)(C)O)cn2)cc(OC(C)C)c1` (centres unmarked) [Example 160, (2-((3-Ethoxy-5-isopropoxybenzyl)amino)pyrimidin-5-yl) (2-(2-hydroxypropan-2-yl)azetidin-1-yl)methanone], the IC50 was below 100 nM. On to `CC(C)c1cc(CNc2cnc(C(=O)N3CCC34COC4)cn2)cc(OC(F)(F)F)c1` [Example 75, (5-((3-Isopropyl-5-(trifluoromethoxy)benzyl)amino)pyrazin-2-yl)(6-oxa-1-azaspiro[3.3]heptan-1-yl)methanone], for which the IC50 was below 100 nM. Turning to `CS(=O)(=O)c1cc(CNc2ncc(C(=O)N3CCC34COC4)cn2)cc(OC(F)(F)F)c1` [Example 137, (2-((3-(Methylsulfonyl)-5-(trifluoromethoxy)benzyl)amino)pyrimidin-5-yl)(6-oxa-1-azaspiro[3.3]heptan-1-yl)methanone], the IC50 was at least 1000 nM.

`CC(C)N1CC2(CCN2C(=O)c2cnc(NCc3cc(OC(F)(F)F)cc(C4CC4)c3)nc2)C1` [Example 147, (2-((3-Cyclopropyl-5-(trifluoromethoxy)benzyl)amino)pyrimidin-5-yl) (6-isopropyl-1,6-diazaspiro[3.3]heptan-1-yl)methanone]: the IC50 is below 100 nM. As to `O=C(c1cnc(NCc2cc(OC(F)(F)F)cc(C3CC3)c2)nc1)N1CC(O)C1` [Example 83, (2-((3-cyclopropyl-5-(trifluoromethoxy)benzyl)ami-no)pyrimidin-5-yl)(3-hydroxyazetidin-1-yl)-methanone], the IC50 lay within 100 to 1000 nM. Turning to `N#Cc1ccc2c(c1)CC(Nc1ncc(C(=O)N3CCC34COC4)cn1)C2` (centres unmarked) [Example 34], the IC50 is 100 to 1000 nM. Next, `O=C(c1cnc(NCc2cc(OC(F)(F)F)cc(N3CCC3)c2)nc1)N1CCC12COC2` [Example 158, (2-((3-(Azetidin-1-yl)-5-(trifluoromethoxy)benzyl)amino)pyrimidin-5-yl)(6-oxa-1-azaspiro[3.3]heptan-1-yl)methanone]: below 100 nM; `O=C(c1cnc(NC2Cc3cc(Br)c(Br)cc3C2)nc1)N1CCC12COC2` [Example 127, (2-((5,6-Dibromo-2,3-dihydro-1H-inden-2-yl)amino)pyrimidin-5-yl)(6-oxa-1-azaspiro[3.3]heptan-1-yl)methanone]: 100 to 1000 nM. In the case of `CC(C)(O)C1CCN1C(=O)c1cnc(NCc2cc(C3CC3)cc(C3CC3)c2)nc1` (centres unmarked) [Example 65], the IC50 was below 100 nM.

As for `CS(=O)(=O)N1CC2(CCN2C(=O)c2cnc(NC3Cc4ccc(Cl)cc4C3)nc2)C1` (centres unmarked) [Example 152, (2-((5-Chloro-2,3-dihydro-1H-inden-2-yl)amino)pyrimidin-5-yl)(6-(methylsulfonyl)-1,6-diazaspiro[3.3]heptan-1-yl)methanone], the IC50 was below 100 nM. Consider `O=C(c1cnc(N[C@@H]2Cc3ccc(Cl)cc3C2)nc1)N1CCC12COC2` [Example 129, (R)-(2-((5-Chloro-2,3-dihydro-1H-inden-2-yl)amino)pyrimidin-5-yl)(6-oxa-1-azaspiro[3.3]heptan-1-yl)methanone], for which the IC50 is below 100 nM. Next, `O=C(c1ccc(NCc2cccc(OC(F)(F)F)c2)nc1)N1CCC12COC2` [Example 73, 6-Oxa-1-azaspiro[3.3]heptan-1-yl(6-((3-(trifluoromethoxy)benzyl)amino)pyridin-3-yl)methanone]: at least 1000 nM.

The compound `O=C(c1cnc(NCc2cc(OC(F)(F)F)cc(C3CC3)c2)nc1)N1CCC12CCC2` [Example 79, (2-((3-Cyclopropyl-5-(trifluoromethoxy)benzyl)amino)pyrimidin-5-yl)(1-azaspiro[3.3]heptan-1-yl)methanone] gave a 50% inhibitory concentration (IC50) below 100 nM. `O=C(c1cnc(NCc2cc(OC(F)(F)F)cc(C3CC3)c2)nc1)N1CCC1` [Example 81, azetidin-1-yl(2-((3-cyclopropyl-5-(trifluoro-methoxy)benzyl)amino)-pyrimidin-5-yl)methanone] showed a 50% inhibitory concentration (IC50) below 100 nM.

In the case of `CC1CC(C)N1C(=O)c1cnc(NCc2cc(OC(F)(F)F)cc(C3CC3)c2)nc1` (single isomer, unassigned) [Example 118, (2-((3-Cyclopropyl-5-(trifluoromethoxy)-benzyl)amino)pyrimidin-5-yl)(2,4-dimethylazetidin-1-yl)methanone], the IC50 is below 100 nM. `O=C(c1cnc(NCc2cc(OC(F)(F)F)cc(C3CC3)c2)nc1)N1CCC12CCOC2` (single isomer, unassigned) [Example 117, (2-((3-Cyclopropyl-5-(trifluoromethoxy)-benzyl)amino)pyrimidin-5-yl)(6-oxa-1-azaspiro[3.4]octan-1-yl) methanone] came in with an IC50 below 100 nM. Next, `CCc1cc(CNc2ncc(C(=O)N3CCC34COC4)cn2)cc(OC(F)(F)F)c1` [Example 123, (2-((3-Ethyl-5-(trifluoromethoxy)benzyl)amino)pyrimidin-5-yl)(6-oxa-1-azaspiro[3.3]heptan-1-yl)methanone]: below 100 nM; `N#Cc1cccc(CNc2ncc(C(=O)N3CCC34COC4)cn2)c1` [Example 14]: at least 1000 nM. For `O=C(c1cnc(NCc2cc(OC(F)(F)F)cc(C3CC3)c2)nc1)N1CCC12CS(=O)(=O)C2` [Example 107, (2-((3-cyclopropyl-5-(trifluoromethoxy)benzyl)ami-no)pyrimidin-5-yl)(6,6-dioxido-6-thia-1-azaspiro[3.3]heptan-1-yl)-methanone], the IC50 is below 100 nM. Compound `CN1CC2(CCN2C(=O)c2cnc(NCc3cc(OC(F)(F)F)cc(C4CC4)c3)nc2)C1` [Example 142, (2-((3-Cyclopropyl-5-(trifluoromethoxy)benzyl)amino)pyrimidin-5-yl)(6-methyl-1,6-diazaspiro[3.3]heptan-1-yl)methanone] registered an IC50 below 100 nM. On to `O=C(c1cnc(NCc2cccc(OC(F)(F)F)c2)nc1)N1CCC12COC2` [Example 2], for which the IC50 was in the range of 100 to 1000 nM. On to `CCOc1cc(CNc2ncc(C(=O)N3CCC34COC4)cn2)cc(C2CC2)c1` [Example 67], for which the IC50 was below 100 nM. `COC[C@@H]1CCCN1C(=O)c1cnc(NCc2cc(OC(F)(F)F)cc(C3CC3)c2)nc1` [Example 94, (S)-(2-((3-cyclopropyl-5-(trifluoromethoxy)benzyl)ami-no)pyrimidin-5-yl)(2-(methoxymethyl)pyrrolidin-1-yl)methanone] yielded an IC50 of 100 to 1000 nM. For `CN1CCC2(CCN2C(=O)c2cnc(NCc3cc(OC(F)(F)F)cc(C4CC4)c3)nc2)C1` (centres unmarked) [Example 155, (2-((3-Cyclopropyl-5-(trifluoromethoxy)benzyl)amino)pyrimidin-5-yl)(6-methyl-1,6-diazaspiro[3.4]octan-1-yl)methanone], the IC50 is below 100 nM. `O=C(c1cnc(NC2Cc3ccccc3C2)nc1)N1CCC12COC2` [Example 7] registered an IC50 of 100 to 1000 nM.

Turning to `CC1CCN1C(=O)c1cnc(NCc2cc(C(F)(F)F)cc(C(F)(F)F)c2)nc1` (centres unmarked) [Example 9], the IC50 was 100 to 1000 nM. In turn, `O=C(c1cnc(NCc2cc(OC(F)(F)F)cc(C3CC3)c2)nc1)N1CCc2ccncc21` [Example 98, (2-((3-cyclopropyl-5-(trifluoromethoxy)benzyl)ami-no)pyrimidin-5-yl)(2,3-dihydro-1H-pyrrolo[2,3-c]pyridin-1-yl)methanone] gave an IC50 below 100 nM. Regarding `O=C(c1cnc(NCc2cc(OC(F)(F)F)cc(C3CCC3)c2)nc1)N1CCC12COC2` [Example 23], the IC50 was below 100 nM. Turning to `O=C(c1cnc(NCc2cccc(C(F)(F)F)c2)nc1)N1CCC12COC2` [Example 20], the IC50 was at least 1000 nM. In turn, `CC1CCN1C(=O)c1cnc(NCc2cc(Cl)cc(Cl)c2)nc1` (centres unmarked) [Example 10] showed an IC50 of 100 to 1000 nM. `O=C(c1cnc(NCc2cc(Cl)ccc2Cl)nc1)N1CCC12COC2` [Example 54]: the IC50 is 100 to 1000 nM. Take `O=C(c1cnc(NCc2cc(OC(F)(F)F)cc(C3CC3)c2)nc1)N1CC(F)C1` [Example 85, (2-((3-cyclopropyl-5-(trifluoromethoxy)benzyl)ami-no)pyrimidin-5-yl)(3-fluoroazetidin-1-yl)-methanone]: the IC50 is below 100 nM. Compound `O=C(c1cnc(NCc2ccc(Cl)c(Cl)c2)nc1)N1CCC12COC2` [Example 51] returned an IC50 of at least 1000 nM.

(Values after patent publication US20210363152A1, “AMINOAZINE AMIDES” (Hoffmann-La Roche Inc., priority 2018, published 2021).)
